The assay has as its target T1, Human CARM1 (PRMT4) (Homo sapiens, UniProt Q86X55).
T1 construct: Flag-CARM1-His; made in house; host or cells: HEK 293F cells (BacMam baculovirus, pFastBacMam)
T1 sequence (Q86X55 2-585 isoform Q86X55-1): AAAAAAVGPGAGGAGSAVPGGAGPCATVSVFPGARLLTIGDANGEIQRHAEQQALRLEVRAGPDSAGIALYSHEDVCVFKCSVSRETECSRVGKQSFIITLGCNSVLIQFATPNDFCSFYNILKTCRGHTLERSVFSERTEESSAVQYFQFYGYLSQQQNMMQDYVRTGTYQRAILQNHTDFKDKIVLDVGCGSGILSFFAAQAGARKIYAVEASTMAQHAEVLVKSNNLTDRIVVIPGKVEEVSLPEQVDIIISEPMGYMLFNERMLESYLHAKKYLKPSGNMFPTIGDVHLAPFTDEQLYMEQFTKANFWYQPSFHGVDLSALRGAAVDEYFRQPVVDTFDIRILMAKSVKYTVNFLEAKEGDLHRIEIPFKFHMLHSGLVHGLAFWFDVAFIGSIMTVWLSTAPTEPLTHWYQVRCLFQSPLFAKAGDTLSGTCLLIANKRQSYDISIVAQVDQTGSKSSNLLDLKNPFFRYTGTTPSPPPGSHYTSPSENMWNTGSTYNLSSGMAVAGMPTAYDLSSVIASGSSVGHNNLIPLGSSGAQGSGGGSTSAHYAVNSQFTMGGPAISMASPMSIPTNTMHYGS
Put plainly: CARM1 biochemical assay (3H-SAM Flashplate, peptide substrate). To be noted: read-out: CARM1_ IC50. In short, it runs like this:
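FLAG/His-tagged human CARM1 (isoform 1, Δ539-561, baculovirus-expressed), 0.25 nM, preincubated 30 min at room temperature with compound (2% DMSO) in 20 mM Bicine pH 7.6, then reacted with 30 nM 3H-SAM and 250 nM biotinylated H3 16-30 peptide (R26 monomethyl). Stopped with 300 uM cold SAM; labelled peptide captured on streptavidin Flashplate; % inhibition versus DMSO and 1 mM SAH controls fitted to a 4- or 3-parameter curve.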

The text below walks through data of patent US20170280720A1, “ARGININE […] INHIBITORS AND USES THEREOF” (EPIZYME, INC., priority 2014, published 2017).

As usually defined, the IC50 is the point on the concentration scale where inhibition reaches its midpoint. Regarding `CNCCN(C)Cc1cccc(-c2cc(C(=O)NCc3ccccn3)c3cnn(C(C)C)c3n2)c1` [Compound 98], the IC50 is 32.4 nM. For `CN(CCN)Cc1cccc(-c2nc(NCc3cn4ccsc4n3)c3cnn(C4CC4)c3n2)c1` [Compound 5] the value was 3.24 nM.

Take `CNCCN(C)Cc1cccc(-c2cc(C(=O)NC3CCOCC3)c3cnn(C4CC4)c3n2)c1` [Compound 87]: the half-maximal inhibitory concentration (IC50) came to 36.8 nM.

As for `CNCCN(C)Cc1cccc(-c2nc(NCc3cccnc3)c3cnn(C4CC4)c3n2)c1` [Compound 63], the half-maximal inhibitory concentration (IC50) is 17 nM. The result for `CNCCN(C)Cc1cccc(-c2cc(NC)c3cnn(C(C)C)c3n2)c1` [Compound 121] reads 70.2 nM; that for `CC(C)n1ncc2c(C(=O)N(C)[C@@H](C)c3ccccc3)cc(-c3cccc(CN(C)CCN)c3)cc21` [Compound 3], 46 nM; that for `CNCCN(C)Cc1cccc(-c2cc(C(=O)NCCCC(=O)NCC3CCOCC3)c3cnn(C(C)C)c3n2)c1` [Compound 60], 17.2 nM. The result for `NCCNCc1ccc(-c2ccc3ncn(CC4CCNCC4)c3c2)cc1` [Compound 70] reads 11700 nM.

For `NCCNCc1ccc(-c2ccc3ncn(Cc4ccc(C(=O)N5CCCC5)cc4)c3c2)cc1` [Compound 104], the IC50 turned out to be 4120 nM. The result for `CC(C)n1ncc2c(C(=O)NCc3ccccc3F)cc(-c3cccc(CN(C)CCN)c3)nc21` [Compound 65] reads 8.39 nM; that for `CNCCN(C)Cc1cccc(-c2ccc3cnn(C(C)C)c3n2)c1` [Compound 73], 381 nM.

On to `CN(CCN)Cc1cccc(-c2nc(NC3CC3)c3cnn(C4CC4)c3n2)c1` [Compound 96], for which the IC50 was determined as 8.42 nM. For `COc1cccc(Cn2cnc3ccc(-c4ccc(CN(C)CCN)cc4)cc32)c1` [Compound 8] the value was 3870 nM. For `Cc1cccc(-n2cnc3ccc(-c4ccc(CNCCN)cc4)cc32)c1` [Compound 106] the value was 14900 nM.

As for `CC(C)n1ncc2c(C(=O)NCc3ccccc3Cl)cc(-c3cccc(CN(C)CCN)c3)nc21` [Compound 54], the IC50 stood at 26.1 nM. Regarding `CNCCN(C)Cc1cccc(-c2ccc3cnn(C(C)C)c3c2)c1` [Compound 100], the IC50 came to 3700 nM. For the compound `CNCCN(C)Cc1cccc(-c2nc(NCc3cnn(C)c3C)c3cnn(C4CC4)c3n2)c1` [Compound 57], the IC50 was determined as 18.5 nM. As for `NCCNCc1ccc(-c2ccc3ncn(CC4CCCNC4)c3c2)cc1` (centres unmarked) [Compound 81], the IC50 was 4270 nM. The result for `CNCCN(C)Cc1cccc(-c2cc(N3CCC(OC)CC3)c3cnn(C(C)C)c3n2)c1` [Compound 51] reads 16.7 nM. For `CC(C)NC(=O)Nc1cc(-c2cccc(CN(C)CCN)c2)nc2c1cnn2C(C)C` [Compound 86] the value was 8.11 nM.
